Measured values as given in publication PMC5955835 (ACS chemical neuroscience, 2018).
“Also recorded” adds a separate entry of the source. Counter-ions that a name gives are not always drawn.

Tests used:
[1] = test system: VC4 and 5 neurons of C. elegans SC_APP model; experiment: HCS microfluidic neurodegeneration assay in C. elegans SC_APP model; assay type: in vivo; conditions: for effect on neurodegeneration of VC4 and 5 neurons in SC_APP model: D3 adult animals, liquid culture, doses 0.02, 0.2, 2 and 20 μM, vs vehicle-treated SC_APP (200 μM FUdR, 0.5% DMSO); for concentration of highest efficacy in protecting against neurodegeneration: SC_APP model, D3 animals, four doses 0.02-20 μM
[2] = test system: VC4 and 5 neurons of SC_APP vem-1/PGRMC1 null C. elegans; conditions: earlier work, SC_APP model; cited from earlier work
[3] = test system: transgenic APP mouse model; conditions: listed as SAS-0132; cited from earlier work

Row | SMILES | effect on neurodegeneration of VC4 and 5 neurons in SC_APP model [1] | concentration of highest efficacy in protecting against neurodegeneration [1] [µM] | PGRMC1 dependence of reduction of neurodegeneration [2] | cognitive performance in transgenic AD mice [3]
1 | Fc1ccc(-n2cc(CCCCN3CCC4(CC3)OCc3ccccc34)c3ccccc32)cc1 [Siramesine] | increase neurodegeneration after a dosing threshold is exceeded despite an initial decrease at lower dosages | – | – | –
2 | COc1ccc(S(=O)(=O)Nc2cc(Cl)cc(Cl)c2OC)cc1N1CCNCC1 [SB399885, SB 399885 hydrochloride] | protected the cholinergic neurons of the SC_APP model | 20 | – | –
3 | CN1CCN(c2ccc3c(c2)[C@H]2C[C@@H]3CCN2C(=O)OCc2ccccc2)CC1 [Compound 1] | reduce neurodegeneration relative to the vehicle treated SC_APP group | – | reduced neurodegeneration through a pathway dependent upon PGRMC1 | improvement in cognitive performance; also recorded: efficacious
4 | C=C(c1ccc(C(=O)O)cc1)c1cc2c(cc1C)C(C)(C)CCC2(C)C [bexarotene] | protected the cholinergic neurons of the SC_APP model | 20 | – | –
5 | OC(CNc1ccccc1)Cn1c2ccc(Br)cc2c2cc(Br)ccc21 (stereo not drawn) [Compound P7C3, P7C3] | – | 0.2 | – | –
